{"source": "paper PMC9257625", "about": "(RSC Chemical Biology, 2022)", "key": {"[1]": {"biological_target": "pepsin (Sus scrofa, UniProt P00791)", "sequence (P00791 60-385)": "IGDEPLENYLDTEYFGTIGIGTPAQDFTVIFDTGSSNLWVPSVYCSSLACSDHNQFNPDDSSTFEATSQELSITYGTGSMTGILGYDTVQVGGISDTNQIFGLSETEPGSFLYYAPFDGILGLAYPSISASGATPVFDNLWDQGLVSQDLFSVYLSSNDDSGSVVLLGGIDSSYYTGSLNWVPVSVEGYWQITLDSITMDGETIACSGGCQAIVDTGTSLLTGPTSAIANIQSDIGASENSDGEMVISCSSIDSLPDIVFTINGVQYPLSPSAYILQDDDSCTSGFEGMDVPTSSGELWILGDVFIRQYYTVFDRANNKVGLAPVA", "assay": "Protease stability assay, pepsin", "format": "in vitro ADME, porcine", "conditions": "acidic pH"}, "[2]": {"assay": "Circular dichroism spectroscopy, percent helicity", "format": "physicochemical", "conditions": "CD θ220, 10 mM phosphate buffer pH 7.4, 50 μM peptide"}, "[3]": {"biological_target": "proteinase K (Parengyodontium album, UniProt P06873)", "sequence (P06873 106-384)": "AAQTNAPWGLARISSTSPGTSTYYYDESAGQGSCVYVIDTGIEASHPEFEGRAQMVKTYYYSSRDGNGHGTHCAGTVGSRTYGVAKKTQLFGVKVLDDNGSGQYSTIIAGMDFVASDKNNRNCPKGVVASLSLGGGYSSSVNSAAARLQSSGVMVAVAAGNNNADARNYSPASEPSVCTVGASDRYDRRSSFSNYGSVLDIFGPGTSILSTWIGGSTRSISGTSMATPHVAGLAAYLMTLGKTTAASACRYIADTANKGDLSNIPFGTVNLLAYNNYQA", "assay": "Protease stability assay, proteinase K", "format": "in vitro ADME, fungal"}}, "note": "Positions of bridges follow the written chain, without caps; N, C: chain ends. Non-standard residues stand in square brackets, D forms with d. Residues, ends and D or L forms follow the SMILES beside them. S5 = C=CCCC[C@](C)(N)C(=O)O", "data": [{"compound": "CC(=O)N[C@@H](CC(C)C)C(=O)N[C@H](C(=O)N[C@@H](Cc1ccccc1)C(=O)N[C@H]1CCCn2cc(nn2)-c2cccc(c2)-c2cn(nn2)CCC[C@@H](C(=O)N[C@@H](CO)C(N)=O)NC(=O)[C@H](CC(C)C)NC(=O)[C@H](CCC(N)=O)NC(=O)[C@H](C)NC(=O)[C@H](Cc2c[nH]c3ccccc23)NC(=O)[C@H](Cc2ccc(O)cc2)NC(=O)[C@H](CCC(=O)O)NC1=O)[C@@H](C)O", "note": "[Peptide 4a]", "values": [{"measurement": "Cleavage by pepsin (in words)", "setting": "[1]", "value": "completely cleaved"}, {"measurement": "Percent helicity", "setting": "[2]", "value": 27, "unit": "%"}, {"measurement": "Cleavage by / resistance to proteinase K (in words)", "setting": "[3]", "value": "partially vulnerable to cleavage"}]}, {"compound": "CC(=O)N[C@@H](CC(C)C)C(=O)N[C@H](C(=O)N[C@@H](Cc1ccccc1)C(=O)N[C@@]1(C)CCCC=CCCC[C@@](C)(C(=O)N[C@@H](CCC(N)=O)C(=O)N[C@@H](CC(C)C)C(=O)N[C@H](C(=O)N[C@@H](CO)C(N)=O)[C@@H](C)O)NC(=O)[C@H](Cc2c[nH]c3ccccc23)NC(=O)[C@H](Cc2ccc(O)cc2)NC(=O)[C@H](CCC(=O)O)NC1=O)[C@@H](C)O", "note": "[Peptide 2a] (Ac-LTF[S5]EYW[S5]QLTS-NH2; staple 4-8)", "values": [{"measurement": "Percent helicity", "setting": "[2]", "value": "~60", "unit": "%"}]}]}
